Laboratory results reported in US9573956B2, “Compounds as dual inhibitors of phosphodiesterases and histone deacetylases” (FUNDACIÓN PARA LA INVESTIGACIÓN MÉDICA APLICADA, priority 2013, dated 2017).
Read-outs that look alike come from different tables or passages of the source. Marks after values point to notes of the source that are not given here.

Key:
PDE5A = biological target: T1, PDE5A (Homo sapiens, UniProt O76074); experiment: PDE enzyme activity assay (HTRF cGMP), PDE5A; type: biochemical; details: recombinant enzyme; read-out: PDE5A1 inhibition (IC50)
T1 construct: they are full-length with N-terminal GST tag; GST (N); purchased BPS Biosciences 60050; host or cells: baculovirus infected Sf9 cells

PDE9A isoform b = biological target: T2, PDE9A isoform b (Homo sapiens, UniProt O76083); experiment: PDE enzyme activity assay (HTRF cGMP), PDE9A; type: biochemical; details: recombinant enzyme; read-out: PDE9A inhibition (IC50)
T2 construct: they are full-length with N-terminal GST tag; GST (N); purchased BPS Biosciences 60090; host or cells: baculovirus infected Sf9 cells

HDAC1 = HDAC1 (Homo sapiens, UniProt Q13547); experiment: HDAC enzyme activity assay (fluorogenic substrate), HDAC1; type: biochemical; details: read-out: HDAC1 inhibition (IC50)
pCREB [1] = experiment: PDE activity in wild type primary neurons (Western blot pCREB); type: cell-based; details: Mus musculus, Neuron, 0.5 h, 30 min, EC50 = 50% increase in pCREB over basal
[2] = test system: acetylated histone 3 at Lys9 (AcH3K9); experiment: HDAC activity in wild type primary neurons (Western blot AcH3K9); type: cell-based, mouse; details: 30 min, EC50 = 50% increase in AcH3K9 over basal
pCREB [3] = experiment: In-vivo activity, hippocampus of wild type mice: pCREB; set-up: species or system mouse; details: i.p. 40 mg/kg, hippocampus one hour later
Procedure: (§1) To determine the ability of the compounds to inhibit HDAC and PDE in the brain, the compound was administered to wild type mice by i.p. at a dose of 40 mg/kg (n=3). Another group of animals received the vehicle (1/1/8, v:v:v, DMSO/Tween 20/saline). One hour later, mice were sacrificed by cervical dislocation and their hippocampus was quickly dissected from the brains.
(§2) Total tissue homogenates were obtained by homogenizing the hippocampus in a cold lysis buffer with protease inhibitors (0.2 M NaCl, 0.1 M HEPES, 10% glycerol, 200 mM NaF, 2 mM Na4P2O7, 5 mM EDTA, 1 mM EGTA, 2 mM DTT, 0.5 mM PMSF, 1 mM Na3VO4 and Complete Protease Inhibitor Cocktail, Roche Diagnostics). The homogenate was then centrifuged at 14,000×g at 4° C. for 20 min and the supernatant aliquoted and stored at −80° C. Total protein concentrations were determined using the BioRad Bradford protein assay (BioRad Laboratories). Protein samples were analyzed as described in the “in vitro” section.

AcH3 = experiment: In-vivo activity, hippocampus of wild type mice: AcH3; set-up: species or system mouse; details: i.p. 40 mg/kg, hippocampus one hour later
Procedure: as §1, §2

[4] = Pharmacokinetics, plasma and brain concentrations in wild type mice; type: in vivo; details: mouse, ip
Procedure: Plasma and brain samples for measuring compounds concentrations were collected at predetermined times from four wild type mice per point. Three time points were measured: 0.25, 0.5 and 1.0 hour. Compounds concentration was measured using a Xevo-TQ MS triple quadropole mass spectrometer with an electrospray ionization (ESI) source and an Acquity UPLC (Waters, Manchester, UK).
[…]. Compounds were injected as a single intraperitoneal injection. Animals were killed by decapitation.
Plasma. Blood was collected into tubes containing EDTA and plasma was collected via centrifugation (4° C., 13200 rpm, 5 min) and stored at −80° C. until analysis.
Brain. Brains were collected immediately after mice death. The brains were excised, weighed and frozen at −80° C. until further process for analysis.
Chromatographic separation was performed by gradient elution at 0.4 mL/min using an Acquity UPLC BEH C18 column (100×2.1 mm, 1.7 μm particle size; Waters). The mobile phase consisted of A: water with 0.1% formic acid, B: methanol with 0.1% formic acid. After 1.5 min at the initial condition of 95% A, solvent B was increased from 5% to 100% over 2 min, maintained at 100% for 1.5 min, then a linear gradient to initial conditions was applied for 0.1 min and maintained for 3.4 minutes to re-equilibrate the column, giving a cycle time of 8.5 min. The autosampler temperature was set at 10° C. and column temperature at 45° C.
Compounds were monitored using a triple quadrupole mass spectrometer equipped with an electrospray ionization interface. For detection and quantification, a capillary voltage of 3.5 kV and a cone voltage of 38 V were used. Source and desolvation temperatures were 150° C. and 650° C., respectively. Ultra-high purity nitrogen was used for cone gas (75 L h^−1) and desolvation gas (1000 L h^−1). The electrospray ionization operated in the positive mode, and the collision gas used was ultra-pure argon at a flow rate of 0.15 mL min^−1.
Quantification was achieved by external calibration using matrix-matched standards. Concentrations were calculated using a weighted least-squares linear regression (W=1/×). […]. The mixture was then agitated for 10 min and centrifuged at 13200 rpm for 5 min at 4° C. The resulting supernatants were transferred to a Ostro plate (Waters, Manchester, UK), designed to remove phospholipids. The resulting eluents were evaporated at 37° C. under a stream of nitrogen. Residues were dissolved in 75 μL of a mixture of methanol and water (50:50, v:v). A 10-uL aliquot of the resulting solution was injected onto the LC-MS/MS system for analysis. Frozen plasma samples were thawed at room temperature, vortexed thoroughly and subjected to the above described extraction procedure. Brain samples were thawed unassisted at room temperature and homogenized using a Branson 250 ultrasonic sonifier (Branson, Danbury, Conn., USA). When homogenized, 75 mg were weighted and extracted as described previously.
Concentration values obtained from the LC-MS/MS analyses are described in Table 4.

PDE4A1 = biological target: T3, PDE4A1 (Homo sapiens, UniProt P27815); experiment: PDE enzyme activity assay (HTRF cGMP), PDE4A1; type: biochemical; details: read-out: PDE4A1 inhibition (IC50)
T3 construct: they are full-length with N-terminal GST tag; GST (N); purchased BPS Biosciences 60040; host or cells: baculovirus infected Sf9 cells

PDE4D7 = PDE4D7 (Homo sapiens, UniProt Q08499); experiment: PDE enzyme activity assay (HTRF cGMP), PDE4D7; type: biochemical; details: read-out: PDE4D7 inhibition (IC50)
Text: The biochemical assay to measure PDE5A, PDE9A isoform b, PDE4D7, and PDE4A1 enzyme activities relies on the HTRF cGMP assay kit from CisBio (CisBio, Cat. #62GM2PEB), that determines the amount of cGMP present in the reaction. The enzymes were obtained from BPS Biosciences (GenBank Accession number for PDE5A: NM_001083, Cat. #60050; PDE9A: NM_001001567, Cat. #60090; PDE4D7: NM_001165899, Cat. #60047; and PDE4A1: U97584, Cat. #60040) and they are full-length with N-terminal GST tag. They were expressed in a baculovirus infected Sf9 cell expression system.
For each enzyme, enzyme activity assay was carried out in a 384-well plate in a final volume of 20 μL, as follows: • 2.5 μL of vehicle or studied compound 4× concentrated prepared in assay buffer containing 50 mM Tris-HCl, 6 mM MgCl2, pH 7.4 (PDE5A, PDE4D7, PDE4A1) and additionally 0.03% Tween-20 (PDE9A). Final percentage of DMSO was 0.5%. • 2.5 μL of PDE5A (7 μg/mL) or 2.5 μL PDE9A (0.2 μg/mL) or 2.5 μL PDE4D7 (1.25 μg/mL) or 2.5 μL PDE4A1 (1.5 μg/mL) diluted in assay buffer. […]
Fluorescence of each well was determined at […] using the plate reader EnVision (Perkin-Elmer). Results were calculated from the 665 nm/620 nm ratio. […]

[5] = test system: phosphorylated tau (p-tau); experiment: AD-related markers in Tg2576 neurons: pTau; type: cell-based; details: Mus musculus, Neuron, 48 h, treated two days, EC50 = 50% decrease in pTau over basal
pTau = experiment: AD-related markers in Tg2576 mice after chronic treatment: pTau; type: in vivo, mouse; details: chronic treatment (3-5 weeks), hippocampal homogenates
Procedure: AD-related markers (APP processing, pTau and acetylated-tubulin) in Tg2576 mice. The effects of the compounds were also analysed in Tg2576 mice after chronic treatment (3-5 weeks) using hippocampal homogenates obtained in a buffer containing SDS (2%) and following the same protocol as described in the in vitro studies.

T3 sequence (P27815 1-647 isoform P27815-4): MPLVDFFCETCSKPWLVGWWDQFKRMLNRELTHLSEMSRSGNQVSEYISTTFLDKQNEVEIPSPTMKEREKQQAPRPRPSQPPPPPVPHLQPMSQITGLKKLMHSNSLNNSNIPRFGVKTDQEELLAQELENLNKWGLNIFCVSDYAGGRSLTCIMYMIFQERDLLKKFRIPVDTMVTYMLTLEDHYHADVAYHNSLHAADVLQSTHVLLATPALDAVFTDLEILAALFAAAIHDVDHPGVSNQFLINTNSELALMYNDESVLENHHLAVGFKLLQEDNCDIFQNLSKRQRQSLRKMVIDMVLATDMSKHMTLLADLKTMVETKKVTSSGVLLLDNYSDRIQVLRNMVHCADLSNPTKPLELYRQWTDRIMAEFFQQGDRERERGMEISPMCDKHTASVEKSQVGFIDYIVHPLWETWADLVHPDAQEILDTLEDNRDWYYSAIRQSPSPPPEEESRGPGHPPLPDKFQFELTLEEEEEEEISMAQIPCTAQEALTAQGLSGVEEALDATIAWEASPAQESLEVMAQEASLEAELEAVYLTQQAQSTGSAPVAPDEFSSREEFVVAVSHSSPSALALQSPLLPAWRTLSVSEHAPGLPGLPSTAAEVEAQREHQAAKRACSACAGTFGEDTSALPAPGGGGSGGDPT
Sequence of HDAC1 (Q13547 whole entry): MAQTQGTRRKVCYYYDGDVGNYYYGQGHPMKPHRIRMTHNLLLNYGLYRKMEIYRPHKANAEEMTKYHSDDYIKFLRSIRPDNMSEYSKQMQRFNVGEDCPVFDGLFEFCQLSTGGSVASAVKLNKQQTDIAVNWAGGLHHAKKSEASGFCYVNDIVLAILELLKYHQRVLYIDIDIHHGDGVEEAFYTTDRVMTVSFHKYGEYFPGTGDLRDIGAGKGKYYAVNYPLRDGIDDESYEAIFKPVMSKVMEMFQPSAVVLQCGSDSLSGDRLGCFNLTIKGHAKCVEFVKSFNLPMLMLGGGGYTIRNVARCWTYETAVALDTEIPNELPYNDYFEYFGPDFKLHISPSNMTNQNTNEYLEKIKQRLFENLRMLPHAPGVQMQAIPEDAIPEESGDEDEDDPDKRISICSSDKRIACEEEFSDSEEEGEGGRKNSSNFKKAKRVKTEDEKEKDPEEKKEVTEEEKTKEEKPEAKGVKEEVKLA
Sequence of PDE4D7 (Q08499 1-748 isoform Q08499-11): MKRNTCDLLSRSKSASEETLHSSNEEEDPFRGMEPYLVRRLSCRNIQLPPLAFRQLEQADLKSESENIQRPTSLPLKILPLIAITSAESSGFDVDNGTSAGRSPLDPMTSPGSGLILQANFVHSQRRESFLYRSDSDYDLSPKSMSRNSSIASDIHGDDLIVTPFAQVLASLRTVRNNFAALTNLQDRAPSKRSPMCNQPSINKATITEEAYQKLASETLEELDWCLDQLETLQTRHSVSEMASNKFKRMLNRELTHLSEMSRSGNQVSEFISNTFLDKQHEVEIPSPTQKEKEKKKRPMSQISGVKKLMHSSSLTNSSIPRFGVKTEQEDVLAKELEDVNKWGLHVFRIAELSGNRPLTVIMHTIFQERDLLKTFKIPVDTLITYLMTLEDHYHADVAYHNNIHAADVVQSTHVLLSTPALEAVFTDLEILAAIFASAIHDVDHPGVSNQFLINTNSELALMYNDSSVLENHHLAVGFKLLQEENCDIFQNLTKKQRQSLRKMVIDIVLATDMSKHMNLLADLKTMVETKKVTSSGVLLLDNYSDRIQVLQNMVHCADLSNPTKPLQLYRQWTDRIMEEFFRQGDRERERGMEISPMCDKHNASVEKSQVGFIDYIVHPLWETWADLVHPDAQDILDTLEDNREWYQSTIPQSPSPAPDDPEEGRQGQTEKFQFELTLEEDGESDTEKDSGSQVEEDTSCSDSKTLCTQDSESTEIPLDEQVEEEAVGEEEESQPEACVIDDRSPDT
T2 sequence (O76083 1-533 isoform O76083-2): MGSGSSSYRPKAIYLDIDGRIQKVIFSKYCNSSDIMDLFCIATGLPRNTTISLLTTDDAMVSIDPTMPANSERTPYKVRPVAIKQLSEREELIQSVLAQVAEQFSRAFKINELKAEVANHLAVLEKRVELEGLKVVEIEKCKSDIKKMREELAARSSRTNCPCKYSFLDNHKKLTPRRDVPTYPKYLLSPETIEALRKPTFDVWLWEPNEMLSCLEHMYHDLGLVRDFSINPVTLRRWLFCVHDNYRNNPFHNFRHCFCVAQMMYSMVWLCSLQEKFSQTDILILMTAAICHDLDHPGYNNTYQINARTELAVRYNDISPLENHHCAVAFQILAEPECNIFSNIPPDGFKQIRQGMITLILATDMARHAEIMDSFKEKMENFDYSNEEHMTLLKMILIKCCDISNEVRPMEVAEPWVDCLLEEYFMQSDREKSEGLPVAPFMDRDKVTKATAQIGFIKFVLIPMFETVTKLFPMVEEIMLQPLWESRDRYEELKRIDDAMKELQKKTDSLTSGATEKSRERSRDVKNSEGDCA

For `CCCc1nn(C)c2c(=O)[nH]c(-c3cc(OC4CCN(c5ncc(C(=O)NO)cn5)CC4)ccc3OCC)nc12` [Example 1-12], the IC50 (PDE5A) was 10 to 1000 nM, the IC50 (PDE9A isoform b) was 1 to 10 µM and the IC50 (HDAC1; recombinant enzyme) was 10 to 1000 nM. The EC50 (pCREB [1]) was 10 to 1000 nM, the EC50 ([2]; Mus musculus, Neuron, 0.5 h, read-out: AcH3 (EC50)) was 10 to 1000 nM and the “pCREB, increment in biological response vs basal” value (pCREB [3]) was “+++ (basal×2≦(+++)<basal×3)”. For the same compound, the “AcH3, increment in biological response vs basal” value (AcH3) was “++ (basal×1≦(++)<basal×2)”, the “CMax (brain; nmol/Kg)” value ([4]; in vivo, 40 mg/kg) was 71.3 (19.5)^c nmol/Kg and the Tmax ([4]; dosage 40 mg/Kg, single intraperitoneal injection, wild type mice, time of maximum concentration in brain) was 15 min. For the same compound, the Cmax ([4]; plasma, dosage 40 mg/Kg, single intraperitoneal injection, wild type mice, at tMax, (Standard Deviation)) was 1880 nM.

In the case of `COc1ccc(N(C(=O)c2c(Cl)cncc2Cl)C2CCN(c3ncc(C(=O)NO)cn3)CC2)cc1OC1CCCC1` [Example 5-04], the IC50 (PDE4A1) is reported as over 10 µM, the IC50 (PDE4D7) is reported as over 10 µM and the IC50 (HDAC1) is reported as 10 to 1000 nM.

Work on `COc1ccc(N(CCCCCCC(=O)NO)C(=O)c2c(Cl)cncc2Cl)cc1OC1CCCC1` [Example 5-05, 7-(N-[3,5-Dichloropyridin-4-ylcarbonyl]-N-[(3-(cyclopentyloxy)-4-methoxyphenyl)]amino)-N-hydroxyheptanamide] yielded an IC50 (PDE4A1; recombinant enzyme) of 1 to 10 µM, an IC50 (PDE4D7; recombinant enzyme) of over 10 µM and an IC50 (HDAC1; recombinant enzyme) of 10 to 1000 nM.

Work on `C[C@@H]1CN(Cc2ncccn2)C[C@H]1c1nc2c(cnn2C2CCOCC2)c(=O)[nH]1` [PF-4447943, 6-[(3S,4S)-4-methyl-1-(pyrimidin-2-ylmethyl)pyrrolidin-3-yl]-1-(tetrahydro-2H-pyran-4-yl)-1H-pyrazolo[3,4-d]pyrimidin-4(5H)-one, reference compound] yielded an IC50 (PDE4A1; recombinant enzyme) of 1 to 10 µM and an IC50 (PDE5A) of 1000 to 10000 nM.

With `CN1CC(=O)N2[C@H](c3ccc4c(c3)OCO4)c3[nH]c4ccccc4c3C[C@@H]2C1=O` [Tadalafil, reference compound] the IC50 (PDE9A isoform b) was over 10 µM, the IC50 (HDAC1; recombinant enzyme) was over 10000 nM and the EC50 (pCREB [1]) was 10 to 1000 nM. The “AcH3 (EC50)” value [2] was “N.E”, the EC50 [5] was 10 to 1000 nM and the “pCREB, increment in biological response vs basal” value (pCREB [3]) was “+++ (basal×2≦(+++)<basal×3)”. The “AcH3, increment in biological response vs basal” value (AcH3) was “N.E. (N.E. means No Effect)” and the “pTau, increment in biological response vs basal” value (pTau) was “+++ (basal×2≦(+++)<basal×3)”.
